Test results: PMC10455244, “Alpha-Mangostin: A Potent Inhibitor of TRPV3 and Pro-Inflammatory Cytokine Secretion in Keratinocytes” (International Journal of Molecular Sciences, 2023)

Experiments:
Type in all cases: cell-based
[1] = tested on: TRPV3 (G573C)-expressing HEK 293T cells; assay: cells; conditions: Homo sapiens, 24 h, read-out: Cell viability (normalized O.D., compared with mock cells)
From the text: (§1) Figure 4 Alpha-mangostin inhibited the activity of hyperactive TRPV3 mutant channels and rescued mutation-induced cell death. (A) Alpha-mangostin inhibited the channel current in representative TRPV3 (G573S)- and TRPV3 (G573C)-expressing HEK 293T cells. […] Currents were normalized to the response at −100 mV before adding alpha-mangostin. (C) Alpha-mangostin inhibited TRPV3-mediated intracellular calcium increase in TRPV3 (G573S)-expressing HEK 293T cells. […] The bar graph on the right summarizes the change in the intracellular calcium rise inhibited by alpha-mangostin. Cells were perfused with calcium-free solutions containing 0 or 1 µM alpha-mangostin or 10 µM 74a before changing to 1.3 mM Ca^2+ solutions containing the same substance concentration. (D) Alpha-mangostin inhibited TRPV3-mediated intracellular calcium increase in TRPV3 (G573C)-expressing HEK 293T cells. […] The bar graph on the right summarizes the change in the intracellular calcium rise inhibited by alpha-mangostin. Cells were perfused with calcium-free solutions containing 0 or 1 µM alpha-mangostin or 10 µM 74a before changing to 1.3 mM Ca^2+ solutions containing the same substance concentration. […]
(§2) The cell counting kit-8 (CCK8; Dojindo Laboratories, Kumamoto, Japan) was employed for viability assay. […] The optical density (O.D., 450 nm) of each well was measured after incubating the cells with CCK-8 solution ([…]) for 2 h. […]

[2] = tested on: TRPV3 (G573S)-expressing HEK 293T cells; assay: cells; conditions: Homo sapiens, 24 h, read-out: Cell viability (normalized O.D., compared with mock cells)
From the text: as §1, §2

TRPV3 = target: T1, TRPV3 (Homo sapiens, UniProt Q8NET8); assay: Whole-cell patch-clamp, carvacrol-evoked TRPV3 current in TRPV3-overexpressing HEK 293T cells; set-up: host or cells: NHEK; conditions: 1000 µM carvacrol, −100 mV, at higher concentrations
T1 sequence (Q8NET8 1-790): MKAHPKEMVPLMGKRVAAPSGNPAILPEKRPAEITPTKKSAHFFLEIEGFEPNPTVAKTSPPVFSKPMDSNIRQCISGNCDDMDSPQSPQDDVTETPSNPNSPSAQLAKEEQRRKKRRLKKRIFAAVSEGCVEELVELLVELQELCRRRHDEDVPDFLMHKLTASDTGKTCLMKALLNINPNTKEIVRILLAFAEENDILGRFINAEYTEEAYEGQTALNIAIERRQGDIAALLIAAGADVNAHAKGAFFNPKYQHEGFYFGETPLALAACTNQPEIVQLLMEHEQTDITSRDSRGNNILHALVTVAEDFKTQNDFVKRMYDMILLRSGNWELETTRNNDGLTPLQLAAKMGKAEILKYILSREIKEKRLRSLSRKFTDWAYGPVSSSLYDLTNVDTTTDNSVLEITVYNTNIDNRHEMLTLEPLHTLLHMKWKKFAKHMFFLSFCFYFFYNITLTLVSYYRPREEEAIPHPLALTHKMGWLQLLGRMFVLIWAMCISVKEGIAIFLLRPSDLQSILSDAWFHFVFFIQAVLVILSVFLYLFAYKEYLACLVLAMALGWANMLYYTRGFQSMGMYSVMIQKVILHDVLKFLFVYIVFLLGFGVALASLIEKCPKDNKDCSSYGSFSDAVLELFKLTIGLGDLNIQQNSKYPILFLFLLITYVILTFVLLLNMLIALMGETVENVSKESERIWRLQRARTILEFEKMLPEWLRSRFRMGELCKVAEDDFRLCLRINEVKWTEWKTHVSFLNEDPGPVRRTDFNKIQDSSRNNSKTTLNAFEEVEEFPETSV

COc1c(O)cc2oc3cc(O)c(CC=C(C)C)c(O)c3c(=O)c2c1CC=C(C)C [Alpha-mangostin]
viability at 1 µM [1]: 93.5%
viability at 1 µM [2]: 86.8%
Effect on TRPV3 current induced by carvacrol (TRPV3): suppressed
